In US20090305995A1, “AGONISTS AND ANTAGONISTS OF THE SOMATOSTATIN RECEPTOR” (Novartis AG, priority 2004, published 2009):
Values after ≈ are worked out from the molar mass of the structure shown. Like-named read-outs stand apart in the source and are kept apart here.

Tests used:
Type in all cases: physicochemical
[1] = high throughput solubility (HT-Solubility); conditions: for water solubility (in words): see FIG. 10
[2] = high throughput permeability (HT-Permeability, log Pe); conditions: PAMPA, Pe in cm/s
[3] = HT-logP o/w, high throughput assay based on artificial liquid membrane permeability
Source text: To be absorbed and transported by passive diffusion, drugs must be sufficiently lipophilic to penetrate the lipid cores of membranes, but not too lipophilic that they get retained and accumulated there. The lipophilictity of a compound is expressed by the octanol/water partition coefficient or distribution coefficient. A first approximation of substance polarity can either be given by computer assisted calculations giving Clog P values or by measurement of the partition coefficients in high-throughput assays (HT-log P o/w) (Faller et al., 2004; Wohnsland et al., 2001).
Octanol/water partition coefficients are measured in a high throughput assay based on artificial liquid membrane permeability. […] Still many approaches to calculate log P values are limited due to a lack of parameterization of certain fragments and fail with increasing molecular weight which implicates higher structural complexity. Similar problems and failures are observed in chromatographic determinations of log P: Peptides might undergo structural changes driven by interactions with the stationary phase. Decisive interactions between the stationary phase and the defolded analytes are therefore also based on the linear peptide sequence. For this reason measured HT-log P o/w values based on chromatographic assays employing stationary phases may lead to erroneous results.

[4] = pH 1, pH 1.0, read-out: HT-Solubility pH 1.0
[5] = pH 6.8, pH 6.8, read-out: HT-Solubility pH 6.8
[6] = pH 4, pH 4.0, read-out: HT-Permeability logPe pH 4.0 (converted)
[7] = pH 6.8, pH 6.8, read-out: HT-Permeability logPe pH 6.8 (converted)
[8] = pH 8, pH 8.0, read-out: HT-Permeability logPe pH 8.0 (converted)
[9] = octanol/water, read-out: HT LogP ohw
[10] = octanol/water; read-out: HT LogP ohw

Row | Structure (SMILES) | solubility [1, 4] | solubility [1, 5] | Papp [2, 6] | logP [3, 9] | further results
1 | CC(=O)N[C@H](CC(=O)N[C@H](Cc1c[nH]c2ccccc12)C(=O)N[C@@H](CCCCN)CC(N)=O)Cc1ccccc1 [Compound 58, Ace-(S)-β^3-HPhe-(R)-Trp-(S)-β^3-HLys-NH2] | 110 µg/mL (≈ 200 µM) | 110 µg/mL (≈ 200 µM) | 1 ×10⁻⁶ cm/s |  | Papp [2, 7]: 5.01 ×10⁻⁶ cm/s
2 | CCCCCN(C)C(=O)C[C@H](CCCCN)NC(=O)[C@@H](Cc1c[nH]c2ccccc12)NC(=O)C[C@H](Cc1ccccc1)NC(=O)CCC [Compound 41, Butyroyl-(S)-β^3-HPhe-(R)-Trp-(S)-β^3-HLys-methyl-pentyl-amide] | 132 µg/mL (≈ 200 µM) | 132 µg/mL (≈ 200 µM) | 2.51 ×10⁻⁶ cm/s | 3.6 | water solubility (in words) [1]: highest solubility values; Papp [2, 7]: 3.98 ×10⁻⁶ cm/s; Papp [2, 8]: 1 ×10⁻⁶ cm/s
3 | CC(C)[C@@H](CC(=O)N(C)CCc1ccccc1)NC(=O)C[C@H](CCCCN)NC(=O)[C@@H](Cc1c[nH]c2ccccc12)NC(=O)C[C@H](Cc1ccccc1)NC(=O)CCc1ccccc1 [Compound 23, Dihydrocinnemoyl-(S)-β^3-HPhe-(R)-Trp-(S)-β^3-HLys-(R)-β^3-Leu-methyl-phenethyl-amide] | 17.4 µg/mL (≈ 20 µM) | 17.4 µg/mL (≈ 20 µM) | 0.1 ×10⁻⁶ cm/s | 5.9 | 
4 | CC(=O)N[C@H](CC(=O)N[C@H](Cc1c[nH]c2ccccc12)C(=O)N[C@@H](CCCCN)CC(=O)N[C@H](CC(N)=O)[C@@H](C)O)Cc1ccccc1 [Compound 2, Ac—(S)-β^3-HPhe-(R)-Trp-(S)-β^3-HLys-(R), (R)—HThr-NH2] | 13.3 µg/mL (≈ 20 µM) | 13.3 µg/mL (≈ 20 µM) | 0.1 ×10⁻⁶ cm/s |  | 
5 | C[C@@H](O)[C@@H](CC(N)=O)NC(=O)C[C@H](CCCCN)NC(=O)[C@@H](Cc1c[nH]c2ccccc12)NC(=O)C[C@H](Cc1ccccc1)NC(=O)C1CCCCC1 [Compound 26, Cyclohexanoyl-(S)-β^3-HPhe-(R)-Trp-(S)-β^3-HLys-(R), (R)—HThr-NH2] | 7.3 µg/mL (≈ 9.97 µM) | 1.5 µg/mL (≈ 2.05 µM) |  | 3.3 | 
6 | CC(=O)N[C@H](CC(=O)N[C@H](Cc1c[nH]c2ccccc12)C(=O)N[C@@H](CCCCN)CC(=O)N[C@@H]1CC(=O)O[C@@H]1C)Cc1ccccc1 [Compound 7, Ac—(S)-β^3-HPhe-(R)-Trp-(S)-β^3-HLys-(R)-4-amino-(R)-5-methyl-dihydro-furan-2-one] | 129 µg/mL (≈ 200 µM) | 129 µg/mL (≈ 200 µM) |  |  | 
7 | CCCC(=O)N[C@H](CC(=O)N[C@H](Cc1c[nH]c2ccccc12)C(=O)N[C@@H](CCCCN)CC(N)=O)Cc1ccccc1 [Compound 61, Butyroyl-(S)-β^3-HPhe-(R)-Trp-(S)-β^3-HLys-NH2] | 115 µg/mL (≈ 200 µM) | 115 µg/mL (≈ 200 µM) | 1.26 ×10⁻⁶ cm/s | 2.8 | Papp [2, 8]: 1 ×10⁻⁶ cm/s
8 | C[C@H]1OC(=O)C[C@H]1NC(=O)C[C@H](CCCCN)NC(=O)[C@@H](Cc1c[nH]c2ccccc12)NC(=O)C[C@H](Cc1ccccc1)NC(=O)c1ccccc1 [Compound 6, Benzoyl-(S)-β^3-HPhe-(R)-Trp-(S)-β^3-HLys-(R)-4-amino-(R)-5-methyl-dihydro-furan-2-one] |  |  |  |  | solubility ([1]; pH 1.0, read-out: HT-Solubility pH 1.0): 142 µg/mL (≈ 200 µM); solubility ([1]; pH 6.8, read-out: HT-Solubility pH 6.8): 14.2 µg/mL (≈ 20 µM); Papp ([2]; pH 4.0, read-out: HT-Permeability logPe pH 4.0 (converted)): 0.1 ×10⁻⁶ cm/s; logP [3, 10]: 2.8
9 | CCCCCCCCC(=O)N[C@H](CC(=O)N[C@H](Cc1c[nH]c2ccccc12)C(=O)N[C@@H](CCCCN)CC(=O)N[C@@H]1CC(=O)O[C@@H]1C)Cc1ccccc1 [Compound 11] | 14.9 µg/mL (≈ 20 µM) | 14.9 µg/mL (≈ 20 µM) | 0.1 ×10⁻⁶ cm/s | 3.9 | 
10 | CCC(=O)N[C@H](CC(=O)N[C@H](Cc1c[nH]c2ccccc12)C(=O)N[C@@H](CCCCN)CC(=O)NC1CCCC1)Cc1ccccc1 [Compound 57, Propionyl-(S)-β^3-HPhe-(R)-Trp-(S)-β^3-HLys-cyclopentyl-amide] | 126 µg/mL (≈ 200 µM) | 63.1 µg/mL (≈ 100 µM) | 1 ×10⁻⁶ cm/s | 2.8 | 
11 | CCCCCNC(=O)C[C@H](CCCCN)NC(=O)[C@@H](Cc1c[nH]c2ccccc12)NC(=O)C[C@H](Cc1ccccc1)NC(C)=O [Compound 45, Ace-(S)-β^3-HPhe-(R)-Trp-(S)-β^3-HLys-pentyl-amide] |  |  |  |  | HT-Solubility pH 1.0 ([1]; pH 1.0): 0.1236 g 1-1; HT-Solubility pH 6.8 ([1]; pH 6.8): 0.0619 g 1-1; water solubility (in words) [1]: medium to good; HT LogP ohw ([3]; octanol/water): 3.2
12 | CCCCCNC(=O)C[C@H](CCCCN)NC(=O)[C@@H](Cc1c[nH]c2ccccc12)NC(=O)C[C@H](Cc1ccccc1)NC(=O)CCC [Compound 55, Butyroyl-(S)-β^3-HPhe-(R)-Trp-(S)-β^3-HLys-pentyl-amide] | 64.7 µg/mL (≈ 100 µM) | 12.9 µg/mL (≈ 19.9 µM) | 2.51 ×10⁻⁶ cm/s | 3.7 | Papp [2, 7]: 0.1 ×10⁻⁶ cm/s
13 | CCCCNC(=O)C[C@H](CCCCN)NC(=O)[C@@H](Cc1c[nH]c2ccccc12)NC(=O)C[C@H](Cc1ccccc1)NC(=O)CC [Compound 53, Propionyl-(S)-β^3-HPhe-(R)-Trp-(S)-β^3-HLys-butyl-amide] | 124 µg/mL (≈ 200 µM) | 30.9 µg/mL (≈ 49.9 µM) | 7.94 ×10⁻⁶ cm/s | 3.1 | water solubility (in words) [1]: medium to good; Papp [2, 7]: 5.01 ×10⁻⁶ cm/s; Papp [2, 8]: 10 ×10⁻⁶ cm/s
14 | CCCCNC(=O)C[C@H](CCCCN)NC(=O)[C@@H](Cc1c[nH]c2ccccc12)NC(=O)C[C@H](Cc1ccccc1)NC(=O)CCC [Compound 54, Butyroyl-(S)-β^3-HPhe-(R)-Trp-(S)-β^3-HLys-butyl-amide] | 127 µg/mL (≈ 200 µM) | 12.7 µg/mL (≈ 20.1 µM) | 0.1 ×10⁻⁶ cm/s | 3.5 | 
15 | CCCCCCN(C)C(=O)C[C@H](CCCCN)NC(=O)[C@@H](Cc1c[nH]c2ccccc12)N(Cc1ccccc1)C(=O)C[C@H](Cc1ccccc1)NC(=O)CC [Compound 69, Propionyl-(S)-β^3-HPhe-(R)—N-Benzyl-Trp-(S)-β^3-HLys-methyl-hexyl-amide] |  |  |  |  | HT-Solubility pH 1.0 ([1]; pH 1.0): 0.0751 g 1-1; HT-Solubility pH 6.8 ([1]; pH 6.8): 0.015 g 1-1; water solubility (in words) [1]: does not allow for good water solubilities; HT LogP ohw ([3]; octanol/water): 5.1
16 | C[C@H]1OC(=O)C[C@H]1NC(=O)C[C@H](CCCCN)NC(=O)[C@@H](Cc1c[nH]c2ccccc12)NC(=O)C[C@@H](N)Cc1ccccc1 [Compound 29] |  |  |  |  | HT-Solubility pH 1.0 ([1]; pH 1.0): 0.121 g 1-1; HT-Solubility pH 6.8 ([1]; pH 6.8): 0.121 g 1-1; HT LogP ohw ([3]; octanol/water): 3.3
17 | CCC(=O)N[C@H](CC(=O)N[C@H](Cc1c[nH]c2ccccc12)C(=O)N[C@@H](CCCCN)CC(N)=O)Cc1ccccc1 [Compound 60, Propionyl-(S)-β^3-HPhe-(R)-Trp-(S)-β^3-HLys-NH2] | 112 µg/mL (≈ 200 µM) | 112 µg/mL (≈ 200 µM) | 3.16 ×10⁻⁶ cm/s |  | Papp [2, 7]: 7.94 ×10⁻⁶ cm/s; Papp [2, 8]: 1.26 ×10⁻⁶ cm/s
18 | CCCCCNC(=O)C[C@H](CCCCN)NC(=O)[C@@H](Cc1c[nH]c2ccccc12)NC(=O)C[C@H](Cc1ccccc1)NC(=O)CC [Compound 50] | 127 µg/mL (≈ 200 µM) |  |  |  | water solubility (in words) [1]: medium to good; logP [3, 10]: 3.4
19 | CCCCCN(C)C(=O)C[C@H](CCCCN)NC(=O)[C@@H](Cc1c[nH]c2ccccc12)N(C)C(=O)C[C@H](Cc1ccccc1)NC(=O)CC [Compound 63, Propionyl-(S)-β^3-HPhe-(R)—N-Me-Trp-(S)-β^3-HLys-methyl-pentyl-amide] | 132 µg/mL (≈ 200 µM) | 132 µg/mL (≈ 200 µM) |  |  | water solubility (in words) [1]: highest solubility values; logP [3, 10]: 3.9
20 | C[C@@H](O)[C@@H](CC(N)=O)NC(=O)C[C@H](CCCCN)NC(=O)[C@@H](Cc1c[nH]c2ccccc12)NC(=O)C[C@@H](N)Cc1ccccc1 [Compound 36, (S)-β^3-HPhe-(R)-Trp-(S)-β^3-HLys-(R), (R)—HThr-NH2] | 124 µg/mL (≈ 200 µM) | 124 µg/mL (≈ 200 µM) | 1.58 ×10⁻⁶ cm/s |  | Papp [2, 8]: 2 ×10⁻⁶ cm/s
21 | CC(C)[C@@H](CC(=O)N(C)CCc1ccccc1)NC(=O)C[C@H](CCCCN)NC(=O)[C@@H](Cc1c[nH]c2ccccc12)NC(=O)C[C@H](Cc1ccccc1)NC(=O)C12CC3CC(CC(C3)C1)C2 [Compound 27, Adamantoyl-(S)-β^3-HPhe-(R)-Trp-(S)-β^3-HLys-(R)-β^3-Leu-methyl-phenethyl-amide] | 45 µg/mL (≈ 50 µM) | 9 µg/mL (≈ 10 µM) |  |  | 
